What all share (assay): normalised viability (% of control), CellTiter-Blue; higher = more viable cells (about 100 = DMSO control)
Common to all, as to conditions: incubation time: 72 h
On the technique in general: Alamar Blue is a resazurin reagent that responds to reducing activity.

Experiment [1] deals with HDQ-P1. As for the experimental part:
(§1)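 DSRT, CellTiter-Blue viability, 72 h incubation. Signal is normalised to DMSO and benzethonium chloride controls. Value is the normalised response at dose 9.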

For experiment [2], the system named is CAL-85-1. As for the experimental part:
as §1

Experiment [3] deals with MDA-MB-453. As for the experimental part: as §1
Experiment [4] has as its system CAL-51. As for the experimental part: as §1
Experiment [5] concerns CAL-148. As for the experimental part:
as §1

The subject of experiment [6] is DU-4475. As for the experimental part: as §1
For experiment [7], the system named is HDQ-P1. As for the experimental part: (§2)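 DSRT, CellTiter-Blue viability, 72 h incubation. Signal is normalised to DMSO and benzethonium chloride controls. Value is the normalised response at dose 8.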
The source holds these as a separate data set.

Experiment [8] relates to CAL-85-1. As for the experimental part:
as §2
This is another data set of the same source.

Experiment [9] deals with MDA-MB-453. As for the experimental part:
as §2
The source holds these as a separate data set.

Experiment [10] has as its system CAL-51. As for the experimental part:
as §2
This is another data set of the same source.

In experiment [11] the test system is CAL-148. As for the experimental part: as §2
The source holds these as a separate data set.

Experiment [12] has as its system DU-4475. As for the experimental part: as §2
This is another data set of the same source.

Several values for one entry are separate records, joined by “and”; a condition that tells them apart may be missing. Identical values can stand only once.

The source of these data is the supplement of paper PMC4862054.

Turning to `Cc1cccc(-c2nn3c(c2-c2ccnc4ccc(C(N)=O)cc24)CCC3)n1` (1000 nM), the normalised viability was determined as 133% in the experiment with HDQ-P1 [1]; 101% in the experiment with CAL-85-1 [2]; 104% in the experiment on MDA-MB-453 [3]; 103% in the experiment on CAL-51 [4]; 79.7% with CAL-148 [5]; 124% in the experiment on DU-4475 [6].
On to `Cn1cc(CNCC2CCN(c3ncc(C(=O)NO)cn3)CC2)c2ccccc21` (1000 nM), for which the normalised viability was 18.9% in the experiment with HDQ-P1 [1]; 3.26% with CAL-85-1 [2]; 2.12% with MDA-MB-453 [3]; 2.6% with CAL-51 [4]; 0.7% in the experiment on CAL-148 [5]; 3.03% in the experiment on DU-4475 [6].
Turning to `O=C(NC[C@H](O)CO)c1ccncc1Nc1ccc(I)cc1F` (10000 nM), the normalised viability was 46.3% in the experiment with HDQ-P1 [1]; 39.9% in the experiment with CAL-85-1 [2]; 37.1% with MDA-MB-453 [3]; 65% with CAL-51 [4]; 70.5% in the experiment on CAL-148 [5]; -0.44% with DU-4475 [6].
On to `Nc1nc(=O)c2c([nH]1)NCC(CNc1ccc(C(=O)N[C@@H](CCC(=O)O)C(=O)O)cc1)N2C=O` (mixture of isomers) [Folinic acid] (990 nM), for which the normalised viability in the experiment on HDQ-P1 [1] amounted to 86.9%; in the experiment on CAL-85-1 [2], 98%; in the experiment with MDA-MB-453 [3] it was 103%; with CAL-51 [4], 94.1%; with CAL-148 [5] it was 105%; with DU-4475 [6] it was 115%.
As for `O=C(Nc1c[nH]nc1-c1nc2ccc(CN3CCOCC3)cc2[nH]1)NC1CC1` [AT9283] (10000 nM), the normalised viability with HDQ-P1 [1] was 7.44%; in the experiment on CAL-85-1 [2], -0.09%; in the experiment on MDA-MB-453 [3] it was 11.2%; in the experiment on CAL-51 [4], 4.48%; in the experiment with CAL-148 [5], 1.55%; with DU-4475 [6], -1.62%.
For the compound `CO[C@@H](C(=O)N1Cc2[nH]nc(NC(=O)c3ccc(N4CCN(C)CC4)cc3)c2C1)c1ccccc1` [Danusertib] (3000 nM), the normalised viability came to 27.8% in the experiment on HDQ-P1 [7]; 40.5% in the experiment with CAL-85-1 [8]; 34.2% in the experiment on MDA-MB-453 [9]; 25.9% with CAL-51 [10]; 53.5% with CAL-148 [11]; 23.1% in the experiment on DU-4475 [12].
In the case of `Cc1nc(Nc2ncc(C(=O)Nc3c(C)cccc3Cl)s2)cc(N2CCN(CCO)CC2)n1` [Dasatinib] (300 nM), the normalised viability with HDQ-P1 [7] is 9.87% and 10.7%; with CAL-85-1 [8] it was 51.2% and 43.6%; with MDA-MB-453 [9] it was 99.2% and 103%; with CAL-51 [10], 41.5% and 39.9%; in the experiment with CAL-148 [11] it was 90% and 89.1%; in the experiment with DU-4475 [12], 102% and 104%.
As to `O=S(=O)(c1cccc2cnccc12)N1CCCNCC1` [Fasudil] (3000 nM), the normalised viability was found to be 121% with HDQ-P1 [7]; 101% in the experiment on CAL-85-1 [8]; 99.4% with MDA-MB-453 [9]; 118% in the experiment on CAL-51 [10]; 81.2% in the experiment with CAL-148 [11]; 113% in the experiment on DU-4475 [12].
In the case of `O=S(=O)(c1cccc2cnccc12)N1CCCNCC1` [Fasudil] (10000 nM), the normalised viability in the experiment with HDQ-P1 [1] was 180%; with CAL-85-1 [2], 99.3%; with MDA-MB-453 [3], 57.8%; with CAL-51 [4] it was 109%; with CAL-148 [5], 82.3%; in the experiment with DU-4475 [6], 101%.
With `CS(=O)(=O)N1CCN(Cc2cc3nc(-c4cccc5[nH]ncc45)nc(N4CCOCC4)c3s2)CC1` [GDC-0941] (3000 nM), the normalised viability in the experiment with HDQ-P1 [7] stood at 14.5%; in the experiment on CAL-85-1 [8] it was 31.9%; in the experiment on MDA-MB-453 [9] it was 10.6%; in the experiment on CAL-51 [10], 14.3%; with CAL-148 [11], 18.6%; in the experiment with DU-4475 [12] it was 104%.
In the case of `CS(=O)(=O)N1CCN(Cc2cc3nc(-c4cccc5[nH]ncc45)nc(N4CCOCC4)c3s2)CC1` [GDC-0941] (10000 nM), the normalised viability in the experiment on HDQ-P1 [1] is 12.8%; in the experiment with CAL-85-1 [2] it was 13.3%; with MDA-MB-453 [3], 5.58%; in the experiment on CAL-51 [4], 2.35%; with CAL-148 [5], 0.59%; in the experiment on DU-4475 [6], -0.76%.
On to `Cc1c(CN2CCN(C(=O)[C@H](C)O)CC2)sc2c(N3CCOCC3)nc(-c3cnc(N)nc3)nc12` [GDC-0980] (3000 nM), for which the normalised viability in the experiment with HDQ-P1 [7] turned out to be 14.2%; with CAL-85-1 [8], 16.9%; with MDA-MB-453 [9], 6.67%; with CAL-51 [10] it was 7.42%; with CAL-148 [11], 5.28%; in the experiment with DU-4475 [12], 19.4%.
In the case of `Nc1cccc2c1CN(C1CCC(=O)NC1=O)C2=O` (centres undefined) [Lenalidomide] (3000 nM), the normalised viability is 93.5% and 92.2% in the experiment with HDQ-P1 [7]; 88.6% and 90.2% in the experiment with CAL-85-1 [8]; 96.9% and 117% with MDA-MB-453 [9]; 109% and 105% in the experiment on CAL-51 [10]; 80.2% and 98.3% in the experiment with CAL-148 [11]; 101% and 100% in the experiment with DU-4475 [12].
In the case of `C[C@]12O[C@H](C[C@]1(O)CO)n1c3ccccc3c3c4c(c5c6ccccc6n2c5c31)CNC4=O` [Lestaurtinib] (300 nM), the normalised viability with HDQ-P1 [7] came to 92.4%; in the experiment with CAL-85-1 [8], 65%; in the experiment with MDA-MB-453 [9], 50.2%; with CAL-51 [10], 76.5%; in the experiment on CAL-148 [11] it was 75.9%; in the experiment with DU-4475 [12], 26.7%.
`O=C1c2c(O)ccc(O)c2C(=O)c2c(NCCNCCO)ccc(NCCNCCO)c21` [Mitoxantrone] (300 nM): the normalised viability is 52.5% in the experiment with HDQ-P1 [7]; 59.1% with CAL-85-1 [8]; 66% with MDA-MB-453 [9]; 28% in the experiment on CAL-51 [10]; 12.7% in the experiment with CAL-148 [11]; 9.52% in the experiment on DU-4475 [12].
As to `Nc1ccccc1NC(=O)c1ccc(CNc2nccc(-c3cccnc3)n2)cc1` [Mocetinostat] (3000 nM), the normalised viability in the experiment with HDQ-P1 [7] turned out to be 71.6%; in the experiment with CAL-85-1 [8], 23.6%; with MDA-MB-453 [9] it was 20.6%; with CAL-51 [10], 51.7%; with CAL-148 [11] it was 37.3%; with DU-4475 [12] it was 5.41%.
As for `COc1nc(N)nc2c1ncn2[C@@H]1O[C@H](CO)[C@@H](O)[C@@H]1O` [Nelarabine] (3000 nM), the normalised viability in the experiment on HDQ-P1 [7] was 74.7% and 87.7%; in the experiment on CAL-85-1 [8], 94.5% and 98%; in the experiment with MDA-MB-453 [9] it was 86.7% and 106%; with CAL-51 [10] it was 102% and 97.6%; in the experiment on CAL-148 [11], 90.6% and 84.7%; in the experiment with DU-4475 [12] it was 121% and 112%.
As to `Cc1ccc(Nc2nccc(N(C)c3ccc4c(C)n(C)nc4c3)n2)cc1S(N)(=O)=O` [Pazopanib] (3000 nM), the normalised viability amounted to 77.9% in the experiment with HDQ-P1 [7]; 96% in the experiment with CAL-85-1 [8]; 42.5% with MDA-MB-453 [9]; 87.6% in the experiment with CAL-51 [10]; 67.7% in the experiment with CAL-148 [11]; 110% with DU-4475 [12].
Regarding `O=C(CCBr)N1CCN(C(=O)CCBr)CC1` [Pipobroman] (3000 nM), the normalised viability in the experiment on HDQ-P1 [7] was determined as 100%; with CAL-85-1 [8], 102%; in the experiment with MDA-MB-453 [9] it was 108%; with CAL-51 [10], 124%; in the experiment on CAL-148 [11], 104%; with DU-4475 [12], 106%.
Consider `c1cc(CN2CCCNCCNCCCNCC2)ccc1CN1CCCNCCNCCCNCC1` [Plerixafor] (750 nM), for which the normalised viability in the experiment on HDQ-P1 [7] was 119%; with CAL-85-1 [8] it was 93%; with MDA-MB-453 [9], 92.5%; in the experiment with CAL-51 [10], 103%; in the experiment with CAL-148 [11] it was 79.1%; with DU-4475 [12], 95.9%.
On to `c1cc(CN2CCCNCCNCCCNCC2)ccc1CN1CCCNCCNCCCNCC1` [Plerixafor] (2500 nM), for which the normalised viability in the experiment with HDQ-P1 [1] worked out at 125%; in the experiment with CAL-85-1 [2], 97%; in the experiment with MDA-MB-453 [3], 103%; in the experiment with CAL-51 [4], 111%; in the experiment on CAL-148 [5], 83.5%; in the experiment on DU-4475 [6], 99.3%.
For the compound `C[C@]12C=CC(=O)C=C1CC[C@@H]1[C@@H]2[C@@H](O)C[C@@]2(C)[C@H]1CC[C@]2(O)C(=O)CO` [Prednisolone] (3000 nM), the normalised viability in the experiment with HDQ-P1 [7] stood at 121%; in the experiment with CAL-85-1 [8], 117%; with MDA-MB-453 [9], 75.4%; in the experiment on CAL-51 [10], 102%; with CAL-148 [11], 96%; with DU-4475 [12] it was 106%.
In the case of `CCN(CC)CCNC(=O)c1c(C)[nH]c(/C=C2\C(=O)Nc3ccc(F)cc32)c1C` [Sunitinib] (300 nM), the normalised viability is 97.1% and 115% in the experiment with HDQ-P1 [7]; 107% and 105% in the experiment on CAL-85-1 [8]; 101% and 83.8% in the experiment on MDA-MB-453 [9]; 113% and 96% in the experiment on CAL-51 [10]; 93.2% and 108% with CAL-148 [11]; 102% and 94.5% with DU-4475 [12].
`CC[C@@]1(O)C(=O)OCc2c1cc1n(c2=O)Cc2cc3c(CN(C)C)c(O)ccc3nc2-1` [Topotecan] (300 nM): the normalised viability with HDQ-P1 [7] is 87.8%; with CAL-85-1 [8], 66.9%; with MDA-MB-453 [9] it was 69.3%; in the experiment with CAL-51 [10] it was 66.2%; in the experiment on CAL-148 [11], 31.4%; in the experiment with DU-4475 [12], 47.5%.
